The record followed here is ChEMBL document CHEMBL4715849, “Recent Progress in the Discovery of Antifungal Agents Targeting the Cell Wall” (J Med Chem, 2020).

≈ marks a conversion by molar mass, not a printed value.

Data set [1] relates to Candida albicans. Description: Antifungal activity against Candida albicans AMB-25 incubated for 48 hrs by serial two-fold dilution method. Format: functional.
A short description of data set [2]: Competitive inhibition of Candida albicans AMB-25 glucosamine synthetase using glutamine as substrate incubated for 30 mins by Lineweaver-Burk plot based Dixon plot analysis.
A short description of data set [3]: Inhibition of Candida albicans AMB-25 glucosamine-6-phosphate synthase using glutamine as substrate incubated for 30 mins.
Data set [4] has as its system Candida albicans. Description: Antifungal activity against Candida albicans CY1002 infected in iv dosed ICR mouse administered as single dose measured on day 7. In kind it is functional. The following applies: 168 h, time 7 day.
Data set [5] has as its system Candida albicans. Description: Antifungal activity against Candida albicans […] by NCCLS protocol based broth M27-A microdilution method. In kind it is functional, organism-based. For orientation: In broth dilution the organism is exposed to a series of concentrations in liquid medium.
The nature of data set [6]: Inhibition of Candida albicans IFO1060 1,3-beta-D-glucan synthase.
The nature of data set [7]: Toxicity in iv dosed mouse. Format: organism-based. The following applies: in vivo.
The subject of data set [8] is Sporothrix schenckii. Description: Antifungal activity against Sporothrix schenckii IFO8158 incubated for 40 hrs by serial agar dilution method. Format: functional. A general note: In agar dilution, organisms are placed on agar that contains the substance at set levels.
Data set [9] has as its system Scedosporium boydii. Description: Antifungal activity against Petriellidium boydii IFO8078 incubated for 40 hrs by serial agar dilution method. Format: functional.
Data set [10] concerns Aspergillus flavus. Description: Antifungal activity against Aspergillus flavus FA21436 NRRL 484 incubated for 40 hrs by serial agar dilution method. Format: functional.
The test system of data set [11] is Candida albicans. Description: Antifungal activity against Candida albicans A9540 incubated for 40 hrs by serial agar dilution method. Format: functional.
The subject of data set [12] is Cryptococcus neoformans. Description: Antifungal activity against Cryptococcus neoformans D49 incubated for 40 hrs by serial agar dilution method. Format: functional.
Data set [13] concerns Aspergillus fumigatus. Description: Antifungal activity against Aspergillus fumigatus IAM2034 incubated for 40 hrs by serial agar dilution method. Format: functional.
In data set [14] the test system is Trichophyton mentagrophytes. Description: Antifungal activity against Trichophyton mentagrophytes D155 incubated for 40 hrs by serial agar dilution method. Format: functional.
For data set [15], the system named is Blastomyces dermatitidis. Description: Antifungal activity against Blastomyces dermatitidis IFO8144 incubated for 40 hrs by serial agar dilution method. Format: functional.
For data set [16], the system named is Aspergillus fumigatus. Description: Antifungal activity against Aspergillus fumigatus IAM2530 incubated for 40 hrs by serial agar dilution method. In kind it is functional.
The test system of data set [17] is Cryptococcus neoformans. Description: Antifungal activity against Cryptococcus neoformans IAM4514 incubated for 40 hrs by serial agar dilution method. In kind it is functional.
The subject of data set [18] is Candida albicans. Description: Antifungal activity against Candida albicans IAM 888 incubated for 40 hrs by serial agar dilution method. Format: functional.
In data set [19] the test system is Candida albicans. Description: Antifungal activity against Candida albicans A9540 infected in iv dosed ICR mouse assessed as protection against fungus-induced lethal infection dosed once immediately following fungal challenge and measured on day 20 post infection. Format: functional. The settings on record: 480 h, time 20 day, read-out: PD50.
For data set [20], the system named is Trichophyton mentagrophytes. Description: Antifungal activity against Trichophyton mentagrophytes N0.4329 incubated for 40 hrs by serial agar dilution method. Format: functional.
In data set [21] the test system is Fusarium verticillioides. Description: Antifungal activity against Fusarium monoliforme A2284 incubated for 40 hrs by serial agar dilution method. Format: functional.
In data set [22] the test system is Aspergillus fumigatus. Description: Antifungal activity against Aspergillus fumigatus GIMCC 3.19 incubated for 24 hrs. Format: functional.
In data set [23] the test system is Cryptococcus neoformans. Description: Antifungal activity against Cryptococcus neoformans ATCC 32719 incubated for 24 hrs. Format: functional.
Data set [24] relates to Aspergillus flavus. Description: Antifungal activity against Aspergillus flavus ATCC 16870 incubated for 24 hrs. In kind it is functional.
In data set [25] the test system is Candida albicans. Description: Antifungal activity against Candida albicans CMCC 76615 incubated for 24 hrs. Format: functional.
The test system of data set [26] is Candida albicans. Description: Antifungal activity against Candida albicans Ca1055 by CLSI method. In kind it is functional.
Data set [27] relates to Candida albicans. Description: Antifungal activity against Candida albicans Ca2323/ORF6.945 by CLSI method. In kind it is functional.
The test system of data set [28] is Candida parapsilosis. Description: Antifungal activity against Candida parapsilosis ATCC22019 by CLSI method. In kind it is functional. The settings on record: Lodderomyces parapsilosis.
Data set [29] concerns Clavispora lusitaniae. Description: Antifungal activity against Candida lusitaniae MY1396 by CLSI method. In kind it is functional.
For data set [30], the system named is Aspergillus fumigatus. Description: Antifungal activity against Aspergillus fumigatus MF5668 by CLSI method. Format: functional.
The subject of data set [31] is Nakaseomyces glabratus. Description: Antifungal activity against Candida glabrata MY1381 by CLSI method. Format: functional.
The subject of data set [32] is Pichia kudriavzevii. Description: Antifungal activity against Candida krusei ATCC 6258 by CLSI method. Format: functional.
Data set [33] can be described thus: Inhibition of Saccharomyces cerevisiae CTS1 incubated for 70 mins by fluorescence method.
For data set [34], the target named is Chitotriosidase-1 (Homo sapiens, UniProt Q13231). Description: Inhibition of human chitinase1 incubated for 70 mins using 4MU-NAG2 as substrate by fluorescence method.
Data set [35] addresses Endochitinase A1 (Aspergillus fumigatus, UniProt Q873Y0). Description: Inhibition of Aspergillus fumigatus chiA1 (Arg28 to His337) expressed in Pichia pastoris incubated for 70 mins using 4MU-NAc3 as substrate by fluorescence method.

Chain of Endochitinase A1 (Q873Y0 whole entry): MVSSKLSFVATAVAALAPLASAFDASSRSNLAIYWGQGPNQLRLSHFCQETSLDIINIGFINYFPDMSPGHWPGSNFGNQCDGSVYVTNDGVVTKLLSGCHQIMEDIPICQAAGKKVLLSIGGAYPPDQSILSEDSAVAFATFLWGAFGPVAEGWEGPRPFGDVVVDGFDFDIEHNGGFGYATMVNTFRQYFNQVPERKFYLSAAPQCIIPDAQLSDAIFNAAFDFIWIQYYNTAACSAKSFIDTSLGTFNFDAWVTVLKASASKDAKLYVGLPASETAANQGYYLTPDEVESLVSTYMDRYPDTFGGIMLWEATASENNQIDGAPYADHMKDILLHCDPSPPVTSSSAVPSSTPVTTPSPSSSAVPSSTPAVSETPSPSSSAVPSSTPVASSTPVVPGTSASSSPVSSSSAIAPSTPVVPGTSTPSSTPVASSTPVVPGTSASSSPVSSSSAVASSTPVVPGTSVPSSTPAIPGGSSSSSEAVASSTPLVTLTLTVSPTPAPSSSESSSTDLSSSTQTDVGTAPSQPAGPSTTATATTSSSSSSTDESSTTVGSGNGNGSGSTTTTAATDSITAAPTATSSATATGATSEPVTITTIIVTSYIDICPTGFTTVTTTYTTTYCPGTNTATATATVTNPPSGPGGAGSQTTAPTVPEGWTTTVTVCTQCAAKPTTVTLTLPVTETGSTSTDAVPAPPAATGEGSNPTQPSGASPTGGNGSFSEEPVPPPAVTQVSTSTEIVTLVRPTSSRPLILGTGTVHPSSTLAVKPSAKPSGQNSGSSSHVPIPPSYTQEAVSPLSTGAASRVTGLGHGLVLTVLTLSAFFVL
Chain of Chitotriosidase-1 (Q13231 whole entry): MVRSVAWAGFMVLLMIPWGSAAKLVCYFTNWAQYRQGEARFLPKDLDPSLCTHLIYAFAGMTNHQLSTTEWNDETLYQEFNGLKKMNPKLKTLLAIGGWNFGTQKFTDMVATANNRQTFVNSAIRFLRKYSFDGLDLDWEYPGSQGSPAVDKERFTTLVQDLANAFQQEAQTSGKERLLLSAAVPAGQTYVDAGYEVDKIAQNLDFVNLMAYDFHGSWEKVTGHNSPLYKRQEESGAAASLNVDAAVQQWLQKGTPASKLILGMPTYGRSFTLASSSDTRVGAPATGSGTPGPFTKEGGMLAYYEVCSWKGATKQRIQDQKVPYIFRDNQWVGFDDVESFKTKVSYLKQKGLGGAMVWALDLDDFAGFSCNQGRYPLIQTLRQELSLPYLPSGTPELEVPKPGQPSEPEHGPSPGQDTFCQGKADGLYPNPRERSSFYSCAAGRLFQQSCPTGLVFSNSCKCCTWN

A word on the MIC: it is the lowest concentration that inhibits growth of the organism. For orientation: Ki means a measure of affinity in units of concentration, obtained from inhibition or displacement. High values mean weaker binding, low ones tighter binding. By IC50 is commonly meant the midpoint of a concentration-inhibition curve. In data set [1], `COC(=O)/C=C/C(=O)NC[C@H](N)C(=O)O` had an MIC above 200 µg/mL. Moreover, the affinity in [2] corresponds to a Ki of 100 nM. In [3], this molecule showed an IC50 of 4.03 µg/mL (≈ 18.6 µM).

The molecule `CCCCCCCCCCCCC[C@H]1OC(=O)[C@H](CCCN)NC(=O)[C@@H]([C@@H](C)O)NC(=O)CNC(=O)[C@H]([C@H](O)CCN)NC(=O)[C@H]2[C@@H](O)CCN2C(=O)[C@H]([C@@H](C)O)NC(=O)[C@@H]2C[C@@H](O)CN2C(=O)[C@H](C(C)C)NC(=O)[C@H](Cc2ccc(O)cc2)NC(=O)[C@@H](C)NC(=O)[C@H]([C@@H](C)O)NC1=O` yielded an ED50 in [4] of 0.04 mg/kg. In addition, the values for the IC50 in data set [5] and in [6] were 0.01 µg/mL (≈ 0.00712 µM) and 6 nM, respectively.

As a reminder, the LD50 is the dose expected to kill half of the subjects tested. `CCC[C@H](N)C(=O)N[C@@H](CNC(=O)/C=C/C(=O)OC)C(=O)O` had an LD50 in data set [7] above 300 mg/kg. In data set [1], the MIC is 0.4 µg/mL (≈ 1.27 µM).

Regarding `CN[C@@H]1[C@H](O[C@@H]2OC[C@@H](O)[C@H](O)[C@H]2O)[C@@H](O)[C@H](O[C@H]2c3cc(C)c(C(=O)N[C@H](CO)C(=O)O)c(O)c3-c3c(cc4c(c3O)C(=O)c3cc(OC)cc(O)c3C4=O)[C@@H]2O)O[C@@H]1C`, the MIC in [8], in data set [9], in data set [10], in data set [11], in data set [12] and in data set [13] was 0.8 µg/mL (≈ 0.934 µM) each time. For the same molecule, the MIC in data set [14], in data set [15], in data set [16], in data set [17], in data set [18] and in data set [20] was 0.8 µg/mL (≈ 0.934 µM) throughout. In [21], this molecule gave an MIC of 0.8 µg/mL (≈ 0.934 µM). Moreover, the ED50 in [19] is 7.4 mg/kg.

As to `O=C(Nc1c(O)c2ccccc2oc1=O)[C@H](O)[C@@H](O)C(=O)N1CCN(c2ccc(Cl)cc2)CC1`, the MIC in data set [22], in [23], in [24] and in data set [25] was 4 µg/mL (≈ 8.2 µM) in each case.

Turning to `C=C1[C@@H]2C[C@@H]3[C@H](C(C)C)[C@@H](OC(=O)CC(C)(O)CC(C)CC)C[C@@]3(C)C[C@H]2/C(C)=C\C[C@@H]2[C@@H](C)OC(=O)[C@H](O)[C@]12O` (stereo partly specified), the MIC worked out at 0.5 µg/mL (≈ 0.87 µM) in [26]; 0.5 µg/mL (≈ 0.87 µM) in data set [27]; 0.5 µg/mL (≈ 0.87 µM) in data set [28]; 0.25 µg/mL (≈ 0.435 µM) in [29]; 0.25 µg/mL (≈ 0.435 µM) in data set [30]; 0.5 µg/mL (≈ 0.87 µM) in [31]. The molecule also showed an MIC in data set [32] of 1 µg/mL (≈ 1.74 µM).

As for `COc1ccccc1-c1noc2nc(C)[nH]c(=O)c12`, the IC50 in [33] is 500 nM; in data set [34], above 100000 nM; in data set [35], 2600 nM.
